Test results published in paper PMC4404333, “Identification of Selective Inhibitors of the Plasmodium falciparum Hexose Transporter PfHT by Screening Focused Libraries of Anti-Malarial Compounds” (PLoS ONE, 2015).
Converted amounts (≈) assume the structure as drawn. “And” between values parts separate entries of the source, which are not always exact repeats. Equal values may be shown once. Where a name gives a salt, the structure may show the parent alone. Read-outs that look alike come from different tables or passages of the source.

Experiments:
Solubility assay = type: physicochemical; settings: aqueous buffer, kinetic from dmso stock, PBS pH 7.4, room temperature
Method: Next, 5 μL of this reference stock plate was mixed with 70 μL of 1-propanol and 75 μL of PBS (pH 7.4) to make the reference plate, and the UV spectrum (250–500 nm) of the reference plate was read. Then, 6 μL of 10 mM test compound stock was added to 600 μL of PBS, pH 7.4, in a 96-well storage plate and mixed. The storage plate was sealed and incubated at room temperature for 18 h. The suspension was then filtered through a 96-well filter plate (pION Inc.). Next, 75 μL of filtrate was mixed with 75 μL of 1-propanol to make the sample plate, and the UV spectrum of the sample plate was read. Calculations were done using μSOL Evolution software based on the area under the curve (AUC) of the UV spectrum of the sample plate and the reference plate. All compounds were tested in triplicate.

[1] = Parallel artificial membrane permeability assay (PAMPA); settings: for Permeation: pH 7.4; for Retention: retention in artificial membrane
Method: A parallel artificial membrane permeability assay (PAMPA) was conducted on a Biomek FX lab automation workstation (Beckman Coulter, Inc.) with PAMPA evolution 96 command software (pION Inc.) as follows: 3 μL of 10 mM test compound stock was mixed with 600 μL of PBS (pH 7.4) to make diluted test compound. Then 150 μL of diluted test compound was transferred to a UV plate (pION Inc.), and the UV spectrum was read as the reference plate. The membrane on a preloaded PAMPA sandwich (pION Inc.) was painted with 4 μL of GIT lipid (pION Inc.). The acceptor chamber was then filled with 200 μL of acceptor solution buffer (pION Inc.), and the donor chamber was filled with 180 μL of diluted test compound. The PAMPA sandwich was assembled, placed on the Gut-Box controlled environment chamber and stirred for 30 min. The aqueous boundary layer was set to 40 μm for stirring. The UV spectrum (250–500 nm) of the donor and the acceptor were read. The permeability coefficient was calculated using PAMPA Evolution 96 Command software (pION Inc.) based on the AUC of the reference plate, the donor plate, and the acceptor plate. All compounds were tested in triplicate.

P. falciparum strain 3D7 = test: Proliferation of intraerythrocytic P. falciparum 3D7 (SYBR Green, 72 h); type: cell-based, Plasmodium falciparum; settings: Plasmodium falciparum, 3D7, 72 h, read-out: Pf 3D7 EC50
Method: (§1) Two P. falciparum strains were used in this study and were provided by the MR4 Unit of the American Type Culture Collection (ATCC, Manassas, VA). Those two strains were the chloroquine sensitive strain 3D7 and the K1 strain that is resistant to chloroquine, pyrimethamine, and sulfadoxine.
(§2) Asynchronous parasites were maintained in culture based on the method of Trager. Parasites were grown in presence of fresh group O-positive erythrocytes (Key Biologics, LLC) in Petri dishes at a hematocrit of 4–6% in RPMI based media (RPMI 1640 supplemented with 0.5% AlbuMAX II, 25 mM HEPES, 25 mM NaHCO3 (pH 7.3), 100 μg/mL hypoxanthine, and 5 μg/mL gentamycin). Cultures were incubated at 37°C in a gas mixture of 90% N2, 5% O2, 5% CO2. For EC50 determinations, 20 μL of RPMI 1640 with 5 μg/mL gentamycin were dispensed per well in an assay plate (Corning 384-well microtiter plate, clear bottom, tissue culture treated, catalog no. 8807BC). 40 nL of compound, previously serially diluted in a separate 384-well white polypropylene plate (Corning, catalog no. 8748BC), was dispensed to the assay plate by hydrodynamic pin transfer (FP1S50H, V&P Scientific Pin Head) and then 20 μL of a synchronized culture suspension (1% rings, 4% hematocrit) was added to each well, thus making a final hematocrit and parasitemia of 2% and 1%, respectively. Assay plates were incubated for 72 h, and the parasitemia was determined by a method previously described: Briefly, 10 μL of the assay solution in PBS (10X SYBR Green I, 0.5% v/v triton X-100, 0.5 mg/mL saponin) was added to each well. Assay plates were shaken for 1 min, incubated in the dark for 90 min, and read with an Envision (Perkin Elmer) spectrophotometer at Ex/Em of 485 nm/535 nm. EC50s were calculated with a custom program (RISE, Robust Investigation of Screening Experiments) using a four-parameter logistic equation.

P. falciparum strain K1 = test: Proliferation of intraerythrocytic P. falciparum K1 (SYBR Green, 72 h); type: cell-based, Plasmodium falciparum; settings: Plasmodium falciparum, K1, 72 h, read-out: Pf K1 EC50
Method: as §1, §2

[2] = tested on: P. falciparum strain 3D7 intraerythrocytic forms; set-up: method as in PubChem web site, http://pubchem.ncbi.nlm.nih.gov/; settings: reported values; ref PubChem web site, http://pubchem.ncbi.nlm.nih.gov/; read-out: EC50 3D7 In vitro; cited from earlier work
PfHT = PfHT (Plasmodium falciparum, UniProt Q7KWJ5); test: Uptake of [3H] D-glucose by L. mexicana Δlmxgt1-3 null mutants expressing PfHT; type: cell-based; set-up: expressed in transfected cells; host or cells: Leishmania mexicana promastigotes, Δlmxgt1-3 hexose transporter null mutant; settings: for SIglucose GLUT1/PfHT (Specificity Index, IC50 for GLUT1/IC50 for PfHT): uptake of 100 μM [3H] D-glucose; for Ki: linear regression; for Vmax: glucose uptake by PfHT
Method: (§3) Glucose uptake assays employed logarithmic phase L. mexicana promastigotes of the Δlmxgt1-3 hexose transporter null mutant strain expressing either PfHT or GLUT1 from an episomal expression vector [17]. Parasites (1x10^7) were resuspended in 100 μL phosphate buffered saline, pH 7.4. Prior to uptake, parasites were pre-incubated for 5 min with inhibitor, and uptake was initiated by adding 100 μL of 200 μM [^3H] D-glucose diluted to 4.0 μCi/mL. Uptake was terminated, typically after 1 min, by centrifuging the parasites through a layer of dibutyl phthalate, as described. Control uptake assays employing [^3H] hypoxanthine, [^3H] uridine, and [^3H] L-proline were performed similarly. Analysis of kinetic data was performed using Graph Pad Prism 4.0b software (Graph Pad).

human GLUT1 = molecular target: T1, human GLUT1 (Homo sapiens, UniProt P11166); test: Uptake of [3H] D-glucose by L. mexicana Δlmxgt1-3 null mutants expressing GLUT1; type: cell-based; set-up: expressed in transfected cells; host or cells: Leishmania mexicana promastigotes, Δlmxgt1-3 hexose transporter null mutant; settings: inhibition of uptake of 100 μM [3H] D-glucose, 1 min uptake assay
T1 sequence (P11166 1-492): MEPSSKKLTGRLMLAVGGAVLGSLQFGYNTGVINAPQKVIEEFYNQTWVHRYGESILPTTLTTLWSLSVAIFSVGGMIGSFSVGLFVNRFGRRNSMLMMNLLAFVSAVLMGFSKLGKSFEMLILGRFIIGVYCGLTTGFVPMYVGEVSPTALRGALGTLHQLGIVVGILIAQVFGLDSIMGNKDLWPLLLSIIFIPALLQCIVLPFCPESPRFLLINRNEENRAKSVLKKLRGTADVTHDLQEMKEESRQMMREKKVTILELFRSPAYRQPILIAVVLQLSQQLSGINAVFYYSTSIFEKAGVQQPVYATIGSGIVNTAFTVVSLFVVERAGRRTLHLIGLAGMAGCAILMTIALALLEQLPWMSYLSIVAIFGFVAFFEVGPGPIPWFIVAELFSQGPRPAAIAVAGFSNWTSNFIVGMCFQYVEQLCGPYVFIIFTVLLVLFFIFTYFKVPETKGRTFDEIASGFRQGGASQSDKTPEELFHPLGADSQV
Method: as §3

[3] = read-out: IC50 PfHT, inhibition of uptake of 100 μM [3H] D-glucose, 1 min uptake assay

PfHT, sequence (Q7KWJ5 whole entry): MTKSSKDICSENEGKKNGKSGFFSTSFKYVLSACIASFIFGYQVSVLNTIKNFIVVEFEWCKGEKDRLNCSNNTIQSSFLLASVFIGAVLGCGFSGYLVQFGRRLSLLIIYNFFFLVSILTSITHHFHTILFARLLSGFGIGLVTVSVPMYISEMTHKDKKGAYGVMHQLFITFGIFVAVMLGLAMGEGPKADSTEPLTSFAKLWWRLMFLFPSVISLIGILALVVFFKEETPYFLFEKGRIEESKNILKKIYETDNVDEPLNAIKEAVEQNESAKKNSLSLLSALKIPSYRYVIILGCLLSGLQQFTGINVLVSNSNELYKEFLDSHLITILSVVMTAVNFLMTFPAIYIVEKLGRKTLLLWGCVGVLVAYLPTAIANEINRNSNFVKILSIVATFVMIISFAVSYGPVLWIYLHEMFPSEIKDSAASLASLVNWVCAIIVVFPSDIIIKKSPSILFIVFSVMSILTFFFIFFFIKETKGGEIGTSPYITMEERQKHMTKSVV

| SMILES | EC50 [2] | IC50 (PfHT) | SIglucose GLUT1/PfHT (Specificity Index, IC50 for GLUT1/IC50 for PfHT) (PfHT) | IC50 (human GLUT1) | other results |
| --- | --- | --- | --- | --- | --- |
| CCCSc1ccc2nc(NC(=O)OC)[nH]c2c1 [Albendazole, albendazole, reference compound] | – | – | – | – | solubility at 18 h (Solubility assay): 5.9 ± 2.3 µM (≈ 1.57 µg/mL); Permeation [1]: 286 ND 10^-6 cm/s; Retention [1]: 59 ± 27% |
| NC(=O)N1c2ccccc2C=Cc2ccccc21 [Carbamazepine, carbamazepine, reference compound] | – | – | – | – | solubility at 18 h (Solubility assay; PBS buffer): 87 ± 1.2 µM (≈ 20.6 µg/mL); Permeation [1]: 85 ± 21 10^-6 cm/s; Retention [1]: 43 ± 3.0% |
| CCN(CC)CCCC(C)Nc1ccnc2cc(Cl)ccc12 (centres unmarked) [Chloroquine, chloroquine, reference compound] | – | – | – | – | EC50 (P. falciparum strain 3D7): 0.08 µM; EC50 (P. falciparum strain K1): 0.81 µM |
| CCC(C)(CC)C(=O)n1ncc2c3c(N)nc(N)nc3ccc21 [Compound 2] | 0.01 µM | 3 µM | 15 | 44 µM | – |
| CC(C)C(C(=O)n1ncc2c3c(N)nc(N)nc3ccc21)C(C)C [Compound 3] | 0.65 µM | 1.1 µM | 7.4 | 8.1 µM | – |
| CCC(C)(C)C1CCc2[nH]c3ccccc3c(=O)c2C1 (centres unmarked) [Compound 4] | 0.38 µM | 27 µM | 0.21 | 5.7 µM | – |
| COc1ccc(Nc2cc(C)nc(Nc3ccc(NC(C)=O)cc3)n2)cc1 [Compound 5] | 0.86 µM | 3.4 µM | 0.073 | 0.25 µM | – |
| Cc1cc(=O)[nH]c(-n2nc(C)cc2NC(=O)C(c2ccccc2)c2ccccc2)n1 [Compound 6] | 0.84 µM | 12 µM | 0.055 | 0.66 µM | – |
| O=C1c2ccc3c4c(ccc(c24)C(=O)N1CCCCO)C(=O)N(CCCCO)C3=O [Compound 7] | 0.79 µM | 0.051 µM | 71 | 3.6 µM and > 3 µM | selective inhibition of PfHT versus GLUT1 (PfHT): 71 fold; Ki (PfHT; Kic (Ki for binding of inhibitor to free transporter), from plot of Km/Vmax versus [I]): 0.093 µM; Ki (PfHT; Kiu (Ki for binding of inhibitor to substrate-bound transporter), from plot of 1/Vmax versus [I]): 0.091 µM; Vmax (PfHT; [I] 100 nM): 274 ± 71 pmol per 10^7 cells per min; Vmax (PfHT; [I] 300 nM): 128 ± 42 pmol per 10^7 cells per min; mode of inhibition of glucose uptake through PfHT (PfHT; substrate saturation curves, one-way ANOVA of Vmax and Km): non-competitive inhibitors |
| CC(C)(C)C(=O)Nc1ccc(C(=O)Nc2cccc(-c3nc4ccccc4[nH]3)c2)cc1 [Compound 8] | 0.28 µM | 2.7 µM | 0.14 | 0.37 µM | – |
| CCN1CCN(Cc2ccc(NC(=O)c3cc4ccc5cccnc5c4[nH]3)cc2)CC1 [Compound 9] | 0.38 µM | 3.5 µM | 2.7 | 9.5 µM | – |
| COc1ccc(Nc2ccc3cc(S(=O)(=O)N4CCCCC4C)ccc3n2)cc1Cl (centres unmarked) [Compound 11] | – | 0.94 µM | 65 | 61 µM | selective inhibition of PfHT versus GLUT1 (PfHT): 65 fold |
| COc1ccccc1Nc1ccc2cc(S(=O)(=O)N3CCCC3)ccc2n1 [Compound 14] | – | – | – | 6.3 µM | IC50 (PfHT; [3]): > 10 µM |
| COc1ccc(Nc2ccc3cc(S(=O)(=O)N4CCOCC4)ccc3n2)cc1OC [Compound 15] | – | 3.1 µM | 0.27 | 0.84 µM | – |
| Cc1ccc(C(=O)Nc2cccc(-c3nc4ccccc4[nH]3)c2)cc1 [Compound 16] | – | 23 µM | 2–3 and 3.1 | 72 µM | – |
| Cc1cccc(C(=O)Nc2cccc(-c3nc4ccccc4[nH]3)c2)c1 [Compound 17] | – | 13 µM | 0.92 | 12 µM | – |
| Cc1cc(C)cc(C(=O)Nc2cccc(-c3nc4ccccc4[nH]3)c2)c1 [Compound 18] | – | 16 µM | 0.75 | 12 µM | – |
| O=C(Nc1cccc(-c2nc3ccccc3[nH]2)c1)c1ccccc1 [Compound 19] | – | 5.3 µM | 2–3 and 2.1 | 11 µM | – |
| CC(C)(C)c1ccc(C(=O)Nc2cccc(-c3nc4ccccc4[nH]3)c2)cc1 [Compound 20] | – | – | – | 31 µM | IC50 (PfHT; [3]): > 10 µM |
| CC(C)(C)C(=O)Nc1ccc(C(=O)Nc2ccc(-c3nc4ccccc4[nH]3)cc2)cc1 [Compound 21] | – | 91 µM | 0.12 | 11 µM | – |
| OC(c1cc(C(F)(F)F)nc2c(C(F)(F)F)cccc12)C1CCCCN1 (centres unmarked) [Mefloquine, mefloquine, reference compound] | – | – | – | – | EC50 (P. falciparum strain 3D7; chloroquine sensitive strain 3D7, 72 h): 0.12 µM; EC50 (P. falciparum strain K1; multi-drug resistant strain K1, 72 h): 0.02 µM |
| CNC(=C[N+](=O)[O-])NCCSCc1ccc(CN(C)C)o1 [Ranitidine HCl, ranitidine, reference compound] | – | – | – | – | solubility at 18 h (Solubility assay; PBS buffer): 84 ± 1.2 µM; Permeation [1]: 0 ± 0 10^-6 cm/s; Retention [1]: 1.7 ± 1.3% |
